Results reported in publication PMC9898036, “VIP152 is a selective CDK9 inhibitor with pre-clinical in vitro and in vivo efficacy in chronic lymphocytic leukemia” (Leukemia, 2022).
Like-named read-outs stand apart in the source and are kept apart here.

Assays:
Muscarinic M3 = Muscarinic M3 (Homo sapiens, UniProt P20309); assay: Eurofins Diversity Panel; type: binding; settings: hum, Conc. 10 μM
[1] = test system: primary CLL samples with human stromal cell line (HS-5) co-culture; assay: Annexin V/PI flow cytometry, four-hour treatment with washout, HS-5 stromal co-culture; type: cell-based; settings: relapse/refractory samples; four-hour exposure, after 24 h
BRAF(V600E) = BRAF(V600E) (Homo sapiens, UniProt P15056, V600E); assay: KINOMEscan: BRAF(V600E); type: binding; settings: 1000 nM, read-out: Percent Control
FES = FES (Homo sapiens, UniProt P07332); assay: KINOMEscan: FES; type: binding; settings: 1000 nM, read-out: Percent Control
PIKFYVE = PIKFYVE (Homo sapiens, UniProt Q9Y2I7); assay: KINOMEscan: PIKFYVE; type: binding
Protocol: The structure and synthesis of VIP152 were recently described by Lücking et al.. (Fig. 1A); however, the selectivity of the molecule in cellular systems has yet to be explored. […] We also performed this experiment at 1000 nM, where CDK9 was inhibited at 99%. […] We found a strong concordance between our data and those of Lücking when comparing the most inhibited kinases. Potential off-target effects of VIP152 were next tested in vitro at a concentration of 10 µM for off-target activity against a broad range of receptors, transporters, ion channels, and enzymes (n = 138) using the Eurofins Diversity Panel.
Kinomescan Kinase Profiling Assay
Kinomescan Assay was performed at DiscoverRX and described in Fabian, et al. 2005, Nat.
Biotechnol. In brief, kinases were produced and subsequently tagged with DNA for qPCR detection.
Streptavidin-coated magnetic beads were bound to biotinylated kinase ligands to serve as a solid support.
VIP152 was dissolved in DMSO and tested across a 10 serial threefold dilution set and compared to a test compound and a DMSO control. Kinases which were inhibited by VIP152 would not be bound to the solid-support resulting in decreased substrate for the qPCR reaction. Kinome map was produced via TreeSpot Analysis from DiscoverRX. […]
NanoBRETTM Target Engagement Assay Protocol […]
The cell and lipid:DNA […]
complex was dispensed into a sterile tissue culture dish and incubated for 22-24 hours. Test compounds were then delivered from the compound source plate to the wells of a 384-well white NBS plate by Echo 550. Cells with NanoBRET Tracer Reagent were then prepared by first removing media from dish of transfected HEK293 cells via aspiration, trypsinization, and allowing cells to dissociate from the dish. Trypsin was neutralized using medium containing serum and centrifuged at 200g for 5 minutes to pellet the cells. Cell density was then adjusted to 2E05 cells/mL in Opti-MEM without phenol red. Complete 20X NanoBRET Tracer Reagent was prepared with Tracer Dilution Buffer and dispensed at a ratio of 1:20 Reagent to cells in the tube. The cell

SIK = SIK (Homo sapiens, UniProt P57059); assay: KINOMEscan: SIK; type: binding; settings: 100 nM, read-out: Percent Control
Muscarinic M2 = Muscarinic M2 (Homo sapiens, UniProt P08172); assay: Eurofins Diversity Panel; type: binding; settings: hum, Conc. 10 μM
[2] = molecular target: JAK1(JH1domain-catalytic) (Homo sapiens, UniProt P23458); assay: KINOMEscan: JAK1(JH1domain-catalytic); type: binding; settings: 1000 nM, read-out: Percent Control
EGFR(L861Q) = EGFR(L861Q) (Homo sapiens, UniProt P00533, L861Q); assay: KINOMEscan: EGFR(L861Q); type: binding; settings: 1000 nM, read-out: Percent Control
MET(M1250T) = MET(M1250T) (Homo sapiens, UniProt P08581, M1250T); assay: KINOMEscan: MET(M1250T); type: binding; settings: 1000 nM, read-out: Percent Control
CLK3 = CLK3 (Homo sapiens, UniProt P49761); assay: KINOMEscan: CLK3; type: binding; settings: 1000 nM, read-out: Percent Control
[3] = parameters: method as in PMID 35046056; settings: human, cited from earlier work
LCK = LCK (Homo sapiens, UniProt P06239); assay: KINOMEscan: LCK; type: binding; settings: 1000 nM, read-out: Percent Control
[4] = molecular target: CDK9 in complex with Cyclin T2 (Homo sapiens, UniProt P50750); assay: NanoBRET target engagement assay (HEK293); type: cell-based
PKNB(M.tuberculosis) = PKNB(M.tuberculosis) (Mycobacterium tuberculosis, UniProt P9WI81); assay: DiscoverX KINOMEscan kinase profiling: PKNB(M.tuberculosis); type: binding; settings: PKNB(M.tuberculosis) (Entrez pknB); 100 nM; read-out: Percent Control
FLT4 = FLT4 (Homo sapiens, UniProt P35916); assay: KINOMEscan: FLT4; type: binding; settings: 1000 nM, read-out: Percent Control
VPS34 = VPS34 (Homo sapiens, UniProt Q8NEB9); assay: KINOMEscan: VPS34; type: binding; settings: 100 nM, read-out: Percent Control
STK36 = STK36 (Homo sapiens, UniProt Q9NRP7); assay: KINOMEscan: STK36; type: binding; settings: 100 nM, read-out: Percent Control
ASK2 = ASK2 (Homo sapiens, UniProt O95382); assay: KINOMEscan: ASK2; type: binding; settings: 1000 nM, read-out: Percent Control
SNARK = SNARK (Homo sapiens, UniProt Q9H093); assay: KINOMEscan: SNARK; type: binding; settings: 100 nM, read-out: Percent Control
ACVR2B = ACVR2B (Homo sapiens, UniProt Q13705); assay: KINOMEscan: ACVR2B; type: binding; settings: 1000 nM, read-out: Percent Control
RET(V804L) = RET(V804L) (Homo sapiens, UniProt P07949, V804L); assay: KINOMEscan: RET(V804L); type: binding; settings: 100 nM, read-out: Percent Control

Chain of PIKFYVE (Q9Y2I7 whole entry): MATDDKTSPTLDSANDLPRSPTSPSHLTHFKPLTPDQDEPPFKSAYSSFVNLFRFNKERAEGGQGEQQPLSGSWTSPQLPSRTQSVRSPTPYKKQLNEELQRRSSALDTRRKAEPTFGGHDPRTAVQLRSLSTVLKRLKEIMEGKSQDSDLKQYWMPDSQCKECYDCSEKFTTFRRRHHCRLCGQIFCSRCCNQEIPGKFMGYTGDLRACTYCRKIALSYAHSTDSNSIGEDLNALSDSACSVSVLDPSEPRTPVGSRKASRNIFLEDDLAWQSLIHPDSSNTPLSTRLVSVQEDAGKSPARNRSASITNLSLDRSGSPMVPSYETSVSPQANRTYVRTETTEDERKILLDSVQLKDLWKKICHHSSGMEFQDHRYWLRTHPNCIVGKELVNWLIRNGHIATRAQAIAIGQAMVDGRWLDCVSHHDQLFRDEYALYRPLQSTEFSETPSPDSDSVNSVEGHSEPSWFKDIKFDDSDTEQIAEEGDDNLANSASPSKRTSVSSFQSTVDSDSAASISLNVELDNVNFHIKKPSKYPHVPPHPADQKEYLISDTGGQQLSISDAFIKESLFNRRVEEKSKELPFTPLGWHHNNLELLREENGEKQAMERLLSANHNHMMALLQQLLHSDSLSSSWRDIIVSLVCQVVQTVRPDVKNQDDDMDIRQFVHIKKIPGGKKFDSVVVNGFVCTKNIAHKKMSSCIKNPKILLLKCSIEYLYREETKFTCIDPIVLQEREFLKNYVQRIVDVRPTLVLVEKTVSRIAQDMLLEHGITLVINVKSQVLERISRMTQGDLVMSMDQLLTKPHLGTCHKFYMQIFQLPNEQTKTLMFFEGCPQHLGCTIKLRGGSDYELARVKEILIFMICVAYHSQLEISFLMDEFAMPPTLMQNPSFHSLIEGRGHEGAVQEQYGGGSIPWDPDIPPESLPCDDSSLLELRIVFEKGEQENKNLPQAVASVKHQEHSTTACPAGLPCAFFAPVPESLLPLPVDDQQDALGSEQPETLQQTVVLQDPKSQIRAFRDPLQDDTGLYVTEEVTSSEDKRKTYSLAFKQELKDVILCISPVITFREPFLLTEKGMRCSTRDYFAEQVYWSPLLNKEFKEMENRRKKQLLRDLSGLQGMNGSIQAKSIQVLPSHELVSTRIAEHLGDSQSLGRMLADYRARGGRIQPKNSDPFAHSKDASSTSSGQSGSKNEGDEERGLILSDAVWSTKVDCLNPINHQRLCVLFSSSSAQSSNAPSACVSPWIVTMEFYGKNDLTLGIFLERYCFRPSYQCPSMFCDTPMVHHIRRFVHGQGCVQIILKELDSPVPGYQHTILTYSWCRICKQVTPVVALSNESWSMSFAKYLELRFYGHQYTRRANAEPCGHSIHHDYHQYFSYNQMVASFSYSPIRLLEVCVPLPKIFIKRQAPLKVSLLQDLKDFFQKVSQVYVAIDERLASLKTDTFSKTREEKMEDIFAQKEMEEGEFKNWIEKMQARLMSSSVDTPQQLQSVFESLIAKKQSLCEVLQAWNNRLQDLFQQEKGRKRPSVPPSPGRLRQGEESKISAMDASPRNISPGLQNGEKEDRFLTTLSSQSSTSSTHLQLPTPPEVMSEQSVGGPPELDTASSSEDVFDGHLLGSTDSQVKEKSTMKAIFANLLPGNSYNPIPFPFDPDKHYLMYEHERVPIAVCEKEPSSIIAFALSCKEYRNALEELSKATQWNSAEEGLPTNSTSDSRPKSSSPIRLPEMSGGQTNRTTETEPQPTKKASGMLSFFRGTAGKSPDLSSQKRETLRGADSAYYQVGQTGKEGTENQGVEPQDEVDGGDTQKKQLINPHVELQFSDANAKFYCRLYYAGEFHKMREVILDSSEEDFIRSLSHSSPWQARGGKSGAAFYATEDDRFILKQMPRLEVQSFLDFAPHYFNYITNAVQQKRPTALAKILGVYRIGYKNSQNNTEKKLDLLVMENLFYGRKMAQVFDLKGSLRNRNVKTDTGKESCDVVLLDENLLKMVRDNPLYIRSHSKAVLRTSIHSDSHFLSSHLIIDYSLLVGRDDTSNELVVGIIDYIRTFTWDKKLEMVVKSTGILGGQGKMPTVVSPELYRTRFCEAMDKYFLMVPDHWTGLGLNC
Chain of SNARK (Q9H093 whole entry): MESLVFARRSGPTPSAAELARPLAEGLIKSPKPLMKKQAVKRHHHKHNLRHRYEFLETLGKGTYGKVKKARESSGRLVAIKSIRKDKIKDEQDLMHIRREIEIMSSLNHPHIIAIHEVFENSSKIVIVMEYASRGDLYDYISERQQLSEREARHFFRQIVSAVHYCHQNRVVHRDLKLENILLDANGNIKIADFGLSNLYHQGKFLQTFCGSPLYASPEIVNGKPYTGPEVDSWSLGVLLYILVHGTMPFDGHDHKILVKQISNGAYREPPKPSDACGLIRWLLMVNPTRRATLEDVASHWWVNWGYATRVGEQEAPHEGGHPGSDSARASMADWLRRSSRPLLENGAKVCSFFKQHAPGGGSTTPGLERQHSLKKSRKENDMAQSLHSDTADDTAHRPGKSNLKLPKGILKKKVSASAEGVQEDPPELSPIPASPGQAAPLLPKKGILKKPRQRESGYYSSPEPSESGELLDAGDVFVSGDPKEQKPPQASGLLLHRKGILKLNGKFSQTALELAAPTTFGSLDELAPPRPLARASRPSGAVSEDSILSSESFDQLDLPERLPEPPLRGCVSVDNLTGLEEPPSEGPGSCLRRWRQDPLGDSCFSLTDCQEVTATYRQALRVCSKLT
Chain of VPS34 (Q8NEB9 whole entry): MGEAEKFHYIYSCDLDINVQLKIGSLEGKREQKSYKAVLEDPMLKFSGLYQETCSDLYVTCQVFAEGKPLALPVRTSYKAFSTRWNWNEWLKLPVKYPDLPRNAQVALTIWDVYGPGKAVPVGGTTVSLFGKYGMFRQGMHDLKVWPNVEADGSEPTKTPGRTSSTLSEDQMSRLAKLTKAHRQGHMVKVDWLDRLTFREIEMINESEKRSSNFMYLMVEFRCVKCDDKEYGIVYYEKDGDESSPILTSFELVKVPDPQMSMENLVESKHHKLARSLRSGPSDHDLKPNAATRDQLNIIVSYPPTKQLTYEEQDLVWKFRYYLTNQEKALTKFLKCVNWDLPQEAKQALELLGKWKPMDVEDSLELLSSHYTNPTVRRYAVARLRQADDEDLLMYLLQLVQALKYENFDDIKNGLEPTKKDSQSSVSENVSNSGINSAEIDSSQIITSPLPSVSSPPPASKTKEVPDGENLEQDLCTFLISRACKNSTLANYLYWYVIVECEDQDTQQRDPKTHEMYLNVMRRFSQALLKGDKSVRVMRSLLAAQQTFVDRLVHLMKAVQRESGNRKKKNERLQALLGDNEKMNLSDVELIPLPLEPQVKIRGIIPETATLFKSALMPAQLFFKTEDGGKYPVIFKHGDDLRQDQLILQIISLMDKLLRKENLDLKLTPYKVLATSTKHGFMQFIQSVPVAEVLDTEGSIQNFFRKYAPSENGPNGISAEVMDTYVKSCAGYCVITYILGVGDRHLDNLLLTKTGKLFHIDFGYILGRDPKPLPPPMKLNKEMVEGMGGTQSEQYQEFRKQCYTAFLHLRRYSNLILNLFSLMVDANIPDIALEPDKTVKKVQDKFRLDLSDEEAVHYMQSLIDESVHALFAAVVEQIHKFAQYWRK
Chain of LCK (P06239 whole entry): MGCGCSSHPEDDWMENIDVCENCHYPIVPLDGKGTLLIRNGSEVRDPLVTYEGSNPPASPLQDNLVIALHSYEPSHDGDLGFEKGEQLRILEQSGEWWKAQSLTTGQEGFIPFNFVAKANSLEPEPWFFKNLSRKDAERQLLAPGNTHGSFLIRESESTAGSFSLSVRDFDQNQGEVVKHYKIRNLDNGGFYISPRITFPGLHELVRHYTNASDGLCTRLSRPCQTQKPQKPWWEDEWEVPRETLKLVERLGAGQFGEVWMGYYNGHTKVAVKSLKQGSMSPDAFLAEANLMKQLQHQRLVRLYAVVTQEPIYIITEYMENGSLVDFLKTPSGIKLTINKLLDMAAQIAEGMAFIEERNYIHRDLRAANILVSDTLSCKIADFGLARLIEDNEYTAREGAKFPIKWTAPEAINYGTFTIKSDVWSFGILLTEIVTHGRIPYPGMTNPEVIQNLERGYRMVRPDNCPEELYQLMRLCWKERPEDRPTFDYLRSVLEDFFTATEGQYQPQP
Chain of SIK (P57059 whole entry): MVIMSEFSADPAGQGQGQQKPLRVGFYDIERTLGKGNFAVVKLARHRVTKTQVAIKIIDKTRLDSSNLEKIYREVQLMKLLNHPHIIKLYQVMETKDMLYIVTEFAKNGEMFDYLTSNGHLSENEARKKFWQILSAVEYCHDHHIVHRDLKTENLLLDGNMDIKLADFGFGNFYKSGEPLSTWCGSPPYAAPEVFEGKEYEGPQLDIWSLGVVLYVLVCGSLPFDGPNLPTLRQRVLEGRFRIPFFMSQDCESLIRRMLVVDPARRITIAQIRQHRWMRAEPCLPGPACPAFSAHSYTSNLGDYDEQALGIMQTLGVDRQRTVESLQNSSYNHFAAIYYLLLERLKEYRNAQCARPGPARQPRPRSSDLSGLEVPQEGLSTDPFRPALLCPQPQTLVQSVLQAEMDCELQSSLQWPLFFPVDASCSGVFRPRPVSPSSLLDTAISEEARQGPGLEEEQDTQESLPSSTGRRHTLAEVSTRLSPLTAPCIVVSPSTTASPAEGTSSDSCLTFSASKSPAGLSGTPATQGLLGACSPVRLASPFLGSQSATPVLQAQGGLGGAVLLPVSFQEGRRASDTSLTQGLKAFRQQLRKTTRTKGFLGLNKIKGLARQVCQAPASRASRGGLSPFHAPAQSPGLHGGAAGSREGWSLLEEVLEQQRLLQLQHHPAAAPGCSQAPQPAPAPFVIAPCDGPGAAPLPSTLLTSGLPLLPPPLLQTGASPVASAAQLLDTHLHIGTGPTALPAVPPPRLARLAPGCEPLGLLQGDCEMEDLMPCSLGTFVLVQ

With `COc1cc(F)ccc1-c1cc(Nc2cc(CS(C)(=N)=O)ccn2)ncc1F` (stereo not shown) [VIP152] the inhibition at 10 µM (Muscarinic M3) was 3%, the “apoptosis and stromal protection” value [1] was “induce significant apoptosis after 24 h and overcome stromal protection” and the remaining binding at 1 µM (BRAF(V600E)) was 92%. It also gave a remaining binding at 1 µM (FES) of 87%, an inhibition at 0.1 µM (PIKFYVE; 100 nM, read-out: inhibition of PIKFYVE relative to control) of 74% and a remaining binding at 0.1 µM (PIKFYVE; PIKFYVE, 100 nM, read-out: Percent Control) of 26%. The remaining binding at 1 µM (PIKFYVE; kinase PIKFYVE (Entrez PIKFYVE), compound concentration 1000 nM, read-out: Percent Control) was 55%, the remaining binding at 0.1 µM (SIK) was 100% and the inhibition at 10 µM (Muscarinic M2) was -5%. The remaining binding at 1 µM [2] was 96%, the remaining binding at 1 µM (EGFR(L861Q)) was 100% and the remaining binding at 1 µM (MET(M1250T)) was 27%. For the same molecule, the remaining binding at 1 µM (CLK3) was 85%, the Cmax [3] was 836 ng/mL and the Cmax ([3]; read-out: Cmax, corresponding concentration) was 2000 nM. The remaining binding at 1 µM (LCK) was 56%, the “potency versus the other inhibitors” value [4] was “higher potency” and the remaining binding at 0.1 µM (PKNB(M.tuberculosis)) was 100%. For the same molecule, the remaining binding at 1 µM (FLT4) was 74%, the remaining binding at 0.1 µM (VPS34) was 94% and the remaining binding at 0.1 µM (STK36) was 100%. It also gave a remaining binding at 1 µM (ASK2) of 91%, a remaining binding at 0.1 µM (SNARK) of 100% and a remaining binding at 1 µM (ACVR2B) of 65%. It also gave a remaining binding at 0.1 µM (RET(V804L)) of 100%.
